US20240299486A1, “ADDRESSING INJECTION SITE REACTIONS ASSOCIATED WITH THE ADMINISTRATION OF ELAMIPRETIDE” (STEALTH BIOTHERAPEUTICS INC., priority 2022, published 2024)
“Also recorded” adds a separate entry of the source.

Assays:
healthy subjects [1] = assay: Phase 1 crossover study: clinically assessed injection site reactions; conditions: for Clinically assessed Erythema or redness, (%) of Reported Reactions / Clinically assessed Erythema or redness, Number of Reported Reactions / Clinically assessed Induration or swelling, (%) of Reported Reactions / Clinically assessed Induration or swelling, Number of Reported Reactions / Clinically assessed Pain or tenderness, (%) of Reported Reactions / Clinically assessed Pain or tenderness, Number of Reported Reactions / Clinically assessed Pruritis, (%) of Reported Reactions / Clinically assessed Pruritis, Number of Reported Reactions: 60 mg SQ elamipretide with or without the intervention, across all timepoints, all participants, n = 80; for Overall effect of the intervention on ISRs compared to elamipretide alone: clinical and self-assessments, 60 mg SQ elamipretide, vs Arm 1 (no intervention)
Experimental: (§1) • This Phase 1, open-label, 6-arm crossover study included 10 healthy subjects ≥18 and ≤65 years of age. • All subjects received 60 mg of SQ elamipretide to alternating quadrants of the abdomen on each of 6 occasions (FIG. 3), with or without the interventions listed in Table 2. • For each treatment arm, ISR clinical and self-assessments were performed pre-elamipretide administration and at 0.5, 1, 2, 4, 6, 12, 24, and 48 hours after each elamipretide dose. • Blood samples for plasma concentrations of elamipretide and its metabolites were also collected pre-dose and at 0.25, 0.5, 1, 2, 4, and 6 hours post-elamipretide dose. • Primary endpoints consisted of comparisons of the grading from the clinical assessments and the self-assessments of each ISR parameter following administration of elamipretide with each separate intervention versus that of elamipretide alone. • Secondary endpoints consisted of comparison of various pharmacokinetic (PK) parameters and adverse events following administration of elamipretide with each separate intervention versus that of elamipretide alone.
(§2) After the screening period (up to 28 days) in this phase 1, open-label, 4-week, 6-part, crossover study, all eligible subjects received 60 mg (0.75 mL) of SC elamipretide to alternating quadrants of the abdomen on each of 6 occasions, with or without potential ISR interventions. The first treatment arm (Arm 1) commenced on Day 1 with administration of elamipretide only, followed by the remaining treatment arms (Arms 2-6) with the following potential mitigations: mometasone furoate, 0.1% ointment, applied once under a hydrocolloid occlusive dressing (DuoDERM Extra Thin) 7 days prior to elamipretide administration (Arm 2); ice application at the elamipretide injection site 5 minutes pre- and post-drug administration (Arm 3); tacrolimus 0.1% ointment applied 15 minutes pre-drug dosing (Arm 4); doxepin 5% cream applied 15 minutes pre-elamipretide administration (Arm 5); and diphenhydramine 50 mg orally taken 2 hours prior to administration (Arm 6). For each treatment arm, blood samples for plasma concentrations of elamipretide and its metabolites were collected pre-dose and at 0.25, 0.5, 1, 2, 4, and 6 hours post-elamipretide dose. Vital signs were recorded pre-dose and at 0.5 and 6 hours post-elamipretide administration. ISR clinical and self-assessments were performed pre-elamipretide administration and at 0.5, 1, 2, 4, 6, 12, 24, and 48 hours after each elamipretide dose. Injection sites were photographed at 0.5, 1, 2, 4, and 12 hours post-elamipretide dose.
(§3) The primary endpoints of this study were comprised of the following efficacy measures: clinical assessments and subject self-assessments. Specifically, the primary endpoints consisted of comparisons of the grading of each ISR parameter following administration of elamipretide with each separate intervention versus the grading of each ISR parameter following administration of elamipretide alone. For clinical assessments, the clinical staff used a standard procedure adapted from the Division of Aids Table for Grading the Severity of Adult and Pediatric Adverse Events to score pain, erythema, induration, and pruritus using a 4-point scale based on severity (0=None, 1=Mild, 2=Moderate, 3=Severe, 4=Potentially Life Threatening). The self-assessments were based on a questionnaire to determine how bothered the patient was following each injection of elamipretide and included the following parameters: pain, burning sensation, cold sensation, itching, redness, swelling, and bruising.
(§4) All statistical analyses were performed using SAS GRID Linux/SAS Studio (Version 9.4, or higher). PK parameters for elamipretide and its metabolites, M1 and M2, were summarized using descriptive statistics.

healthy subjects [2] = assay: Phase 1 crossover study: safety (TEAEs, vital signs, ECG); type: in vivo, human; conditions: Arm 6, 50 mg orally 2 hours prior to 60 mg SQ elamipretide, 10 subjects
Experimental: The secondary endpoints of this study consisted of PK and safety assessments. After measuring absorption and distribution PK of elamipretide and its metabolites (M1 and M2), comparisons of each Tmax, Cmax, and AUC0-6 following administration of elamipretide with each separate intervention versus Tmax, Cmax, and AUC0-6 following administration of elamipretide alone were performed. Safety assessments consisted of comparison of treatment emergent adverse events (TEAEs) reported following administration of elamipretide with each separate intervention versus TEAEs reported following administration of elamipretide alone. Safety measurements included TEAEs, clinical laboratory tests (e.g., serum chemistry and hematology), 12-lead ECGs, physical exams, and vital signs.

healthy subjects [3] = assay: Phase 1 crossover study: self-assessed injection site reactions; type: in vivo, human; conditions: 60 mg SQ elamipretide with or without the intervention, across all timepoints, all participants, n = 80
Experimental: as §1, §2, §3, §4

MRGPRX2 receptor = biological target: T1, MRGPRX2 receptor (Homo sapiens, UniProt Q96LB1); assay: Fluo-4 calcium assay in MRGPRX2 expressing Chem-1 cells; type: cell-based
T1 construct: host or cells: Chem-1 cells (G418-selected)
T1 sequence (Q96LB1 1-330): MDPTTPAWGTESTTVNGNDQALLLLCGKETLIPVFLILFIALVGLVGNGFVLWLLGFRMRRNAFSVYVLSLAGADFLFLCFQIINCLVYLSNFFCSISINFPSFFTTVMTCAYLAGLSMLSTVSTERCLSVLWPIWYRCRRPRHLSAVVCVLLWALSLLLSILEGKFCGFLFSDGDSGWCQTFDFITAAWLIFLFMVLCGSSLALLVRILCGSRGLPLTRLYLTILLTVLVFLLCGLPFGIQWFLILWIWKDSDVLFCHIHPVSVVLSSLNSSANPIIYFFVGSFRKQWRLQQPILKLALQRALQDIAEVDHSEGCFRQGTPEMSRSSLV

[4] = clinical assessment, vs elamipretide alone

Compound | Clinically assessed Erythema or redness, (%) of Reported Reactions (healthy subjects [1]) | Clinically assessed Erythema or redness, Number of Reported Reactions (healthy subjects [1]) | Clinically assessed Induration or swelling, (%) of Reported Reactions (healthy subjects [1]) | Clinically assessed Induration or swelling, Number of Reported Reactions (healthy subjects [1]) | Clinically assessed Pain or tenderness, (%) of Reported Reactions (healthy subjects [1]) | Clinically assessed Pain or tenderness, Number of Reported Reactions (healthy subjects [1]) | Clinically assessed Pruritis, (%) of Reported Reactions (healthy subjects [1]) | Clinically assessed Pruritis, Number of Reported Reactions (healthy subjects [1]) | Overall effect of the intervention on ISRs compared to elamipretide alone (healthy subjects [1]) | Self-assessed Bruising, (%) of Reported Reactions (healthy subjects [3]) | Self-assessed Bruising, Number of Reported Reactions (healthy subjects [3]) | Self-assessed Burning sensation, (%) of Reported Reactions (healthy subjects [3]) | Self-assessed Burning sensation, Number of Reported Reactions (healthy subjects [3]) | Self-assessed Cold Sensation, Number of Reported Reactions (healthy subjects [3]) | Self-assessed Itching, (%) of Reported Reactions (healthy subjects [3]) | Self-assessed Itching, Number of Reported Reactions (healthy subjects [3]) | Self-assessed Pain, (%) of Reported Reactions (healthy subjects [3]) | Self-assessed Pain, Number of Reported Reactions (healthy subjects [3]) | Self-assessed Redness, (%) of Reported Reactions (healthy subjects [3]) | Self-assessed Redness, Number of Reported Reactions (healthy subjects [3]) | other results
CN(C)CCOC(c1ccccc1)c1ccccc1 [Diphenhydramine] | (26.3) % | 21 | (6.3) % | 5 | (2.5) % | 2 | (10.0) % | 8 | most reduced; also recorded: potential in reducing induration; also recorded: Improvement | (1.3) % | 1 | (1.3) % | 1 | 0.0 | (11.3) % | 9 | (2.5) % | 2 | (25.0) % | 20 | incidence of induration at 0.5 hours post-elamipretide dose (healthy subjects [1]; [4]): trend to significance in reduction; incidence of induration at 1 hour post-elamipretide dose (healthy subjects [1]; [4]): significantly decreased incidence; mild somnolence, incidence (healthy subjects [2]): 50%; mild somnolence, number of subjects (healthy subjects [2]): 5 subjects; Self-assessed Swelling, (%) of Reported Reactions (healthy subjects [3]): (6.3) %; Self-assessed Swelling, Number of Reported Reactions (healthy subjects [3]): 5
CN(C)CCC=C1c2ccccc2COc2ccccc21 [Doxepin] | (27.5) % | 22 | (21.3) % | 17 | (12.5) % | 10 | (12.5) % | 10 | little impact | (0.0) % | 0 | (7.5) % | 6 | 0.0 | (12.5) % | 10 | (8.8) % | 7 | (35.0) % | 28 | Self-assessed Swelling, (%) of Reported Reactions (healthy subjects [3]): (21.3) %; Self-assessed Swelling, Number of Reported Reactions (healthy subjects [3]): 17
C[C@@H]1C[C@H]2[C@@H]3CCC4=CC(=O)C=C[C@]4(C)[C@@]3(Cl)[C@@H](O)C[C@]2(C)[C@@]1(OC(=O)c1ccco1)C(=O)CCl [Mometasone furoate] | (37.5) % | 30 | (10.0) % | 8 | (8.8) % | 7 | (2.5) % | 2 | most reduced; also recorded: favorably mitigate | (1.3) % | 1 | (8.8) % | 7 | 0.0 | (6.3) % | 5 | (8.8) % | 7 | (41.3) % | 33 | Overall effect of the intervention on ISRs compared to elamipretide alone (healthy subjects [1]; listed as mometasone furoate ointment): Improvement; incidence of induration at 0.5 hours post-elamipretide dose (healthy subjects [1]; [4]): significantly reduced incidence; incidence of induration at 1 hour post-elamipretide dose (healthy subjects [1]; [4]): Trends to significance in reduction; pruritus at 0.5 hours post-dose (healthy subjects [1]; [4]): Trends to significance in reduction; Self-assessed Swelling, (%) of Reported Reactions (healthy subjects [3]): (11.3) %; Self-assessed Swelling, Number of Reported Reactions (healthy subjects [3]): 9
C=CC[C@@H]1/C=C(\C)C[C@H](C)C[C@H](OC)[C@H]2O[C@@](O)(C(=O)C(=O)N3CCCC[C@H]3C(=O)O[C@H](/C(C)=C/[C@@H]3CC[C@@H](O)[C@H](OC)C3)[C@H](C)[C@@H](O)CC1=O)[C@H](C)C[C@@H]2OC [Tacrolimus] | (31.3) % | 25 | (22.5) % | 18 | (3.8) % | 3 | (15.0) % | 12 | little impact | (10.0) % | 8 | (1.3) % | 1 | 0.0 | (15.0) % | 12 | (3.8) % | 3 | (25.0) % | 20 | Overall effect of the intervention on ISRs compared to elamipretide alone (healthy subjects [1]; listed as tacrolimus): most reduced; Overall effect of the intervention on ISRs compared to elamipretide alone (healthy subjects [1]; listed as tacrolimus ointment): Improvement; Self-assessed Swelling, (%) of Reported Reactions (healthy subjects [3]): (18.8) %; Self-assessed Swelling, Number of Reported Reactions (healthy subjects [3]): 15
CCNC(=O)[C@@H]1CCCN1C(=O)[C@H](CCCNC(=N)N)NC(=O)[C@H](CC(C)C)NC(=O)[C@@H](CC(C)C)NC(=O)[C@H](Cc1ccc(O)cc1)NC(=O)[C@H](CO)NC(=O)[C@H](Cc1c[nH]c2ccccc12)NC(=O)[C@H](Cc1c[nH]cn1)NC(=O)[C@@H]1CCC(=O)N1 [leuprolide] |  |  |  |  |  |  |  |  |  |  |  |  |  |  |  |  |  |  |  |  | activation of the MRGPRX2 expressing cells (calcium mobilization) (MRGPRX2 receptor; Chem-1 cells, Fluo-4): dose dependent activation
O=c1c(O)c(-c2ccc(O)c(O)c2)oc2cc(O)cc(O)c12 [quercetin, 3,3′,4′,5,7-pentahydroxyflavone] |  |  |  |  |  |  |  |  |  |  |  |  |  |  |  |  |  |  |  |  | inhibition of the activation of the MRGPRX2 receptor caused by elamipretide (MRGPRX2 receptor; 100 μM of elamipretide, various concentrations of quercetin): in a dose-dependent manner, inhibit the activation; also recorded: inhibits activation of MRGPRX2
